Test results: patent US8747888B2, “Dermal delivery device with in situ seal” (Agile Therapeutics, Inc., priority 2007, dated 2014)

Assay: Control of loss of volatile components: amounts in the AI patch after storage, by gas chromatography
Format: physicochemical
Conditions: 12 wks, device with in situ seal
Protocol: A transdermal hormone delivery device was prepared comprising an internal backing layer, an AI layer, and a release liner. […] The device also comprised an overlay comprising a polyurethane […] backing, which is able to absorb large amounts of the volatile excipients, DMSO and ethyl lactate, an acrylic PSA coated onto the polyurethane foam, and a PIB PSA coated on top of the acrylic PSA. […] The release liner was a Mylar polyester film coated with a fluoropolymer release coating. […] The devices were placed in a 25° C. or 40° C. oven. After 6 weeks and 12 weeks, devices were removed from the oven and the active section of each device was separated from the overlay. […] (12 weeks exposure to 40° C. is intended to simulate 18 months exposure to room temperature (25° C.)).

CCCCCCCCCCCCOC(=O)C(C)O (centres unmarked) [Lauryl Lactate, lauryl lactate]
Amount in the AI patch (40° C.): 9.20 wt %
Amount in the AI patch (room temp): 9.10 wt %
